Some test systems named below: HOP-18; K562; HL-60; Malme-3M; SK-MEL-5; NCI-H226; LOX IMVI; M14; CAKI-1; SN12C; HOP-62; OVCAR-4; KM-20L2; MCF7.
What all share (assay): NCI-60 cell line screen, 48 h

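Cells were grown in 96-well plates and exposed to each compound for 48 hours at five concentrations; endpoints were interpolated linearly between bracketing concentrations, or set to the highest concentration if not reached. GI50 marks 50% less growth.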 Activity calls are given as the source filed them. Rule as the data show it: active = GI50 up to about 1.1 µM and inactive = higher.

As to `C=CCN1C(N)=C(C(N)=O)S/C1=C1/SC(=S)N(c2ccc(C)cc2)C1=O`, the GI50 is 61.9 µM (inactive) with HOP-18; > 100 µM (inactive) in the assay with K562; > 100 µM (inactive) with HL-60; 36.8 µM (inactive) with Malme-3M; > 100 µM (inactive) in the assay with SK-MEL-5; > 100 µM (inactive) in the assay on NCI-H226.
`COc1ccc(CNc2nc3cc(C(F)(F)F)ccc3nc2C)cc1OC`: the GI50 is 24.9 µM (inactive) with LOX IMVI; 29.1 µM (inactive) with K562; 20.3 µM (inactive) with M14; 33 µM (inactive) in the assay with CAKI-1; 30.5 µM (inactive) in the assay with SN12C; 19.9 µM (inactive) in the assay on HL-60. Besides, the GI50 is 20.8 µM (inactive) with HOP-62; 20.1 µM (inactive) in the assay on Malme-3M; 12 µM (inactive) with OVCAR-4; 17.3 µM (inactive) with SK-MEL-5; 44.1 µM (inactive) in the assay on KM-20L2.
With `O=C1C=C[C@@H](COC2OC(CO)C(O)C(O)C2O)O1` (stereo not given in full), the GI50 was 3.88 µM (inactive) in the assay with LOX IMVI; 4.46 µM (inactive) with MCF7; 68.2 µM (inactive) in the assay with HOP-18; 3.42 µM (inactive) with K562; 17.9 µM (inactive) in the assay with CAKI-1; 5.93 µM (inactive) in the assay on SN12C. Also, the GI50 is 1.72 µM (inactive) in the assay on HL-60; 56.2 µM (inactive) with HOP-62; 19 µM (inactive) with OVCAR-4; 17.8 µM (inactive) in the assay on SK-MEL-5; 35.7 µM (inactive) in the assay on NCI-H226.
In the case of `Cc1c2ccnc(C(F)(F)F)c2cc2c1[nH]c1ccccc12`, the GI50 with LOX IMVI was > 125 µM (inactive); in the assay with MCF7, 17.1 µM (inactive); in the assay with HOP-18, 0.673 µM (active); in the assay with K562, > 125 µM (inactive); in the assay with CAKI-1 it was > 125 µM (inactive); in the assay on SN12C, > 125 µM (inactive). Besides, the GI50 is > 125 µM (inactive) with HL-60; 73.3 µM (inactive) with HOP-62; 98.2 µM (inactive) in the assay on Malme-3M; > 125 µM (inactive) in the assay on OVCAR-4; > 125 µM (inactive) in the assay on SK-MEL-5; 38.9 µM (inactive) in the assay on NCI-H226. The GI50 in the assay with KM-20L2 was > 125 µM (inactive).
`COc1cc2nc(-c3cccc(N(C)C)c3)cc(O)c2cc1OC`: the GI50 is 6.79 µM (inactive) with LOX IMVI; 3.27 µM (inactive) in the assay with HOP-18; 3.62 µM (inactive) in the assay with K562; 2.07 µM (inactive) in the assay on M14; 7.67 µM (inactive) in the assay on SN12C; 2.7 µM (inactive) with HL-60. In addition, the GI50 is 3.02 µM (inactive) in the assay on HOP-62; 2.23 µM (inactive) in the assay on Malme-3M; > 100 µM (inactive) in the assay on OVCAR-4; 4.36 µM (inactive) in the assay with SK-MEL-5; 3.58 µM (inactive) in the assay on NCI-H226; 2.11 µM (inactive) with KM-20L2.
On to `COc1cc(Nc2c3ccccc3nc3ccccc23)ccc1NS(C)(=O)=O`, for which the GI50 in the assay with LOX IMVI was 2.67 µM (inactive); with HOP-18, 13.3 µM (inactive); with K562 it was 34.4 µM (inactive); in the assay with M14, 3.14 µM (inactive); in the assay on CAKI-1, 3.02 µM (inactive); in the assay with SN12C, 2.58 µM (inactive). Also, the GI50 is 4.79 µM (inactive) in the assay on HL-60; 7.6 µM (inactive) with HOP-62; 7.66 µM (inactive) in the assay on Malme-3M; 3.61 µM (inactive) in the assay with OVCAR-4; 6.53 µM (inactive) with SK-MEL-5; 11.2 µM (inactive) with NCI-H226. In addition, in the assay on KM-20L2, the GI50 is 4.46 µM (inactive).
As for `CC(O)C(O)C(N)CC=O` (stereo not given), the GI50 with LOX IMVI was 499 µM (inactive); in the assay with MCF7, > 500 µM (inactive); in the assay on HOP-18, > 500 µM (inactive); in the assay on K562 it was > 500 µM (inactive); in the assay with CAKI-1 it was > 500 µM (inactive); with SN12C it was > 500 µM (inactive). Also, the GI50 in the assay with HL-60 was 495 µM (inactive); with HOP-62, > 500 µM (inactive); with Malme-3M, > 500 µM (inactive); in the assay on OVCAR-4 it was > 500 µM (inactive); with SK-MEL-5 it was > 500 µM (inactive); in the assay on NCI-H226, > 500 µM (inactive). Besides, in the assay on KM-20L2, the GI50 was > 500 µM (inactive).
For `CC1(C)CCCC2(C)[C@@H]1CC[C@]13C[C@](C)(CC[C@@H]21)[C@@H]3CO` (stereo not given in full), the GI50 in the assay on LOX IMVI, in the assay on K562, with M14, with CAKI-1, in the assay on SN12C and in the assay with HL-60 was > 100 µM (inactive) in each case. Also, the GI50 with HOP-62, in the assay with Malme-3M, in the assay with OVCAR-4, in the assay with SK-MEL-5, with NCI-H226 and in the assay on KM-20L2 was > 100 µM (inactive) in each case.
With `CC(C)(C)CI`, the GI50 in the assay with LOX IMVI is 17.3 µM (inactive); with HOP-18 it was > 10 µM (inactive); in the assay on K562, 21.6 µM (inactive); in the assay with M14, 25 µM (inactive); in the assay on SN12C it was 18.4 µM (inactive); in the assay on HL-60 it was 22.9 µM (inactive). For the same molecule, the GI50 with Malme-3M is 19.7 µM (inactive); in the assay on SK-MEL-5 it was 16.9 µM (inactive); in the assay on KM-20L2 it was 32.2 µM (inactive).
With `O=C(O)c1ccc([Se][Se]c2ccc(C(=O)O)cc2)cc1`, the GI50 was 29.4 µM (inactive) with HOP-18; 18.5 µM (inactive) in the assay on M14; 19.4 µM (inactive) in the assay with CAKI-1; 37.5 µM (inactive) in the assay on SN12C; 26.1 µM (inactive) in the assay with Malme-3M; 19.2 µM (inactive) with OVCAR-4. For the same molecule, the figures for the GI50 with NCI-H226 and with KM-20L2 were 26.8 µM (inactive) and 33 µM (inactive), respectively.
`CC(C)OP(=O)(OC(C)C)/C(=N/Nc1ccc([N+](=O)[O-])cc1)NCCO`: the GI50 in the assay on LOX IMVI was 56.1 µM (inactive); in the assay with K562, 71.8 µM (inactive); in the assay with M14, > 100 µM (inactive); in the assay with CAKI-1, > 100 µM (inactive); in the assay on SN12C, > 100 µM (inactive); in the assay on HL-60, 42.7 µM (inactive). Also, the GI50 is > 100 µM (inactive) in the assay with HOP-62; > 100 µM (inactive) in the assay on Malme-3M; > 100 µM (inactive) in the assay with OVCAR-4; > 100 µM (inactive) in the assay on SK-MEL-5; > 100 µM (inactive) in the assay on NCI-H226; 85.7 µM (inactive) with KM-20L2.
